# pEC50: −log10 of the molar value. Like-named read-outs stand apart in the source and are kept apart here. Non-standard residues stand in square brackets, D forms with d. Residues, ends and D or L forms follow the SMILES beside them. No end group written: not given here. *: point of attachment. Bpa = N[C@@H](Cc1ccc(C(=O)c2ccccc2)cc1)C(=O)O; Myristoyl = CCCCCCCCCCCCCC(=O)*
# How the values were obtained:
# [1] = tested on: isolated adult rat cardiac myocytes; assay type: cell-based; conditions: for % Change baseline SL / % Change dep v (shortening rate) / % Change peak h (shortening amplitude) / % Change ret v (re-lengthening rate): 10^−8 M; for ability to bind and affect myocyte contractile function: 10^−8M, individually administered; for character relative to hRFRP-1 on myocyte contractile function (agonist, antagonist, reverse agonist; in words): peptides at 10^−8M or 10^−7M, peak shortening, departure and return velocity
# Text: Adult rat and rabbit ventricular cardiac myocytes were isolated as previously described (Westfall, M. V. Et al. (1997), Westfall, M. V. and Borton, A. R. (2003)). Hearts from Sprague-Dawley rats and New Zealand white rabbits were perfused and enzymatically digested to isolate myocytes; the protocol was approved by The University of Michigan University Committee on Use and Care of Animals (UCUCA) in accordance with university and federal regulatory guidelines. Aliquots of isolated ventricular myocytes were plated on laminin-coated glass coverslips in serum-containing Dulbecco's Modified Eagle Media (Invitrogen, CA, US) supplemented with 5% fetal bovine serum, and 50 U/ml penicillin and 50 μg/ml streptomycin (pen/strep; Sigma-Aldrich, MO, US). Two hours later, media was replaced with serum-free M199 (Invitrogen) supplemented with 1.8 mM Ca^2+, 10 mM HEPES, 10 mM glutathione, and pen/strep. Rat myocytes were transferred to a stimulation chamber and electrically paced the day after isolation (Zornik, E. Et al. (1999), Westfall, M. V. Et al. (1997)). Media was changed daily for all myocyte preparations.
# Sarcomere shortening was detected using a video-based detection system (IonOptix, MA, USA) as described earlier (Westfall, M. V. and Borton, A. R. (2003)). Rat myocytes were paced at 0.2 Hz and rabbit myocytes were paced at 0.5 Hz or 1.0 Hz for these studies. Recordings were made prior to application of each peptide concentration, the protein kinase C (PKC) inhibitor bisindolylmaleimide-1, (bis-1; CalBiochem/EMD, NJ, US), or media only (control, C) and at 1, 3, 5, 10 and 15 minutes after application of peptide, bis-1, or media. Signal averaged data were analyzed to determine resting sarcomere length, shortening amplitude (peak shortening), shortening rate (departure velocity), and re-lengthening rate (return velocity), as previously described (Westfall, M. V. Et al. (1997), Westfall, M. V. and Borton, A. R. (2003)), in 7-20 myocytes from 3-4 rats for each peptide concentration, bis-1, and media.
# D. melanogaster heart = assay type: in vivo, Drosophila melanogaster; conditions: for effect on fly heart rate / contractility (in words): DMS analogs; for pEC50: in vivo, maximal effect 1 minute after microinjection, read-out: best-fit EC50, decrease of heart rate; for heart rate, % of the basal contraction rate: within 1 minute
# Description: D. melanogaster Oregon R wild-type strain flies were maintained on cornmeal molasses media at 24° C. under a 12 hour light/dark cycle. The animals selected for analysis were larvae, prepupae, or adults; both females and males were analyzed and no difference in response was observed. An animal was positioned onto double-stick tape adhered to a microscope stage and heart rate was monitored for 2 minutes before and 10 minutes after saline (control) or peptide was delivered as previously described (Nichols, R. Et al. (1999), Zornik, E. et al. (1999)). A drawn-out micropipette was used to deliver saline or peptide (40 ηl) into the hemolymph (blood) at a site anterior to the brain to avoid tissue damage to the central nervous system and dorsal vessel (aorta and heart). Each animal received only one microinjection of saline or peptide. In some cases, recordings were extended up to 1 hour to establish the return to baseline. Data were averaged from several animals (n≧10) and reported relative to the basal heart rate.
# The influence of DMS (Dromyosuppressin peptide; […]amide—SEQ ID NO: 1) on in vivo heart rate in D. melanogaster was compared to physiological saline to evaluate dose-dependent effects of myosuppressin in cardiac function in a model amenable to molecular genetics. […] The dose-dependent effects of dromyosuppressin reported were evaluated in pupae because the animals are immobile and, thus, this developmental stage is the easiest to observe and record heart contractions. The effects of DMS were measured over a range of ten-fold concentrations from 10^−6 M to 10^−11 M and compared to the influence of physiological saline (mean±SEM; 91±3% basal contraction rate at 1 minute; n=18). […] Significant reductions in heart rate were detected in response to DMS concentrations of 10^−9 M and higher, and the peak responses were observed within 1 minute of microinjection of the peptide. The DMS-induced effects typically were observed over 2-3 minutes, and were reversible, returning to approximately basal contraction rate levels in about 5 minutes in response to 10^−8 M and 10^−9 M. At the highest concentrations tested, 10^−6 M and 10^−7 M, DMS decreased heart rate to 25±11% (n=14) and 25±7% (n=16), respectively, within 1 minute. The DMS-induced effects were sustained for 3-5 minutes before they returned to approximately basal contraction rate levels within 30 minutes.
# Protophormia terraenovae = assay: Cardiac arrest in intact blowfly (electrocardiograms); assay type: in vivo
# Description: In order to determine the effect of DMS on cardiac arrest in a larger invertebrate various concentrations of DMS were applied to intact Protophormia terraenovae, a blowfly, and electrocardiograms were recorded continuously [Angioy et al. 2007]. […] Signal resumed in animals; the recovery time shortened at lower DMS concentrations.
compound,measurement,setting,value
VPHSAANLPLRFamide (VPHSAANLPLRF-NH2; listed as Rattus norvegicus) [rRFRP-1],% Change baseline SL,[1]; 15 minutes,−0.3 ± 0.1%
same,% Change dep v (shortening rate),[1]; 15 minutes,−22.1±6.0%
same,% Change peak h (shortening amplitude),[1]; 15 minutes,−17.7±4.3%
same,% Change ret v (re-lengthening rate),[1]; 15 minutes,−25.5±3.9%
FANLPLRFamide (FANLPLRF-NH2),ability to bind and affect myocyte contractile function,[1],in a manner similar to the parent peptide hRFRP-1
VFLRFamide (VFLRF-NH2),effect on fly heart rate / contractility (in words),D. melanogaster heart,"capable of not only binding, but exerting an effect on cardiac contractility"
LPLRFamide (LPLRF-NH2),ability to bind and affect myocyte contractile function,[1],in a manner similar to the parent peptide hRFRP-1
CC(C)C[C@H](NC(=O)[C@H](Cc1ccccc1)NC(=O)[C@@H](NC(=O)[C@H](Cc1c[nH]cn1)NC(=O)[C@H](CC(=O)O)NC(=O)[C@@H](NC(=O)[C@H](Cc1ccc(C(=O)c2ccccc2)cc1)NC(=O)[C@@H](NC(=O)[C@@H](N)Cc1ccc(O)cc1)[C@@H](C)O)C(C)C)C(C)C)C(=O)N[C@@H](CCCNC(=N)N)C(=O)N[C@@H](Cc1ccccc1)C(N)=O [Y-[Bpa2]DMS] (H-YT[Bpa]VDHVFLRF-NH2; N-terminus assumed),pEC50,D. melanogaster heart,9.89
PQRFamide (PQRF-NH2),ability to bind and affect myocyte contractile function,[1],in a manner similar to the parent peptide hRFRP-1
"CN(C)CCCn1cc(C2=C(c3c[nH]c4ccccc34)C(=O)NC2=O)c2ccccc21 [bis-1, bisindolylmaleimide-1, reference compound]","effect of inhibitor on the influence of 10^−8 M hRFRP-1 on shortening amplitude, shortening and re-lengthening rates","[1]; 500 ηM inhibitor, 15 minutes",largely blocked
TDVDHAFLRFamide (TDVDHAFLRF-NH2) [[A6]DMS],effect on fly heart rate / contractility (in words),D. melanogaster heart,increase heart rate
MP(Bpa)SFANLPLRFamide (MP[Bpa]SFANLPLRF-NH2; N-terminus assumed; SMILES CSCC[C@H](N)C(=O)N1CCC[C@H]1C(=O)N[C@@H](Cc1ccc(C(=O)c2ccccc2)cc1)C(=O)N[C@@H](CO)C(=O)N[C@@H](Cc1ccccc1)C(=O)N[C@@H](C)C(=O)N[C@@H](CC(N)=O)C(=O)N[C@@H](CC(C)C)C(=O)N1CCC[C@H]1C(=O)N[C@@H](CC(C)C)C(=O)N[C@@H](CCCNC(=N)N)C(=O)N[C@@H](Cc1ccccc1)C(N)=O) [[Bpa3]hRFRP-1],"character relative to hRFRP-1 on myocyte contractile function (agonist, antagonist, reverse agonist; in words)",[1],increases cardiac function
TDVDAVFLRFamide (TDVDAVFLRF-NH2) [[A5]DMS],effect on fly heart rate / contractility (in words),D. melanogaster heart,increase heart rate
PHSFANLPLRFamide (PHSFANLPLRF-NH2),"character relative to hRFRP-1 on myocyte contractile function (agonist, antagonist, reverse agonist; in words)",[1],super-agonist
[A9]hRFRP-1: parent hRFRP-1 peptide where the 9th amino acid is replaced by an alanyl residue (MPHSFANLALRF-NH2; listed as Homo sapiens),peak shortening (peak h) compared with unsubstituted hRFRP-1,[1]; 10^−8M alanine analogs,significantly different
same,relaxation (ret v) compared with unsubstituted hRFRP-1,[1]; 10^−8M alanine analogs,significantly different
"LAEELSSYSRRKGGFSFRFamide (LAEELSSYSRRKGGFSFRF-NH2) [26RFa(8-26), reference compound]",% Change baseline SL,[1]; 15 minutes,−0.04 ± 0.1%
same,% Change dep v (shortening rate),[1]; 15 minutes,−6.0 ± 4.4%
same,% Change peak h (shortening amplitude),[1]; 15 minutes,−4.3 ± 5.7%
same,% Change ret v (re-lengthening rate),[1]; 15 minutes,−7.3 ± 6.3%
"KGGFSFRFamide (KGGFSFRF-NH2; listed as Rattus norvegicus) [26RFa(19-26), reference compound]",% Change baseline SL,[1]; 15 minutes,−0.4 ± 0.2%
same,% Change dep v (shortening rate),[1]; 15 minutes,−5.3 ± 5.6%
same,% Change peak h (shortening amplitude),[1]; 15 minutes,−7.7 ± 4.8%
same,% Change ret v (re-lengthening rate),[1]; 15 minutes,−8.1 ± 5.0%
"PKI-(Myr-14-22)-amide (Myristoyl-SGRTGRRNA-NH2; SMILES CCCCCCCCCCCCCC(=O)N[C@@H](CO)C(=O)NCC(=O)N[C@@H](CCCNC(=N)N)C(=O)N[C@H](C(=O)NCC(=O)N[C@@H](CCCNC(=N)N)C(=O)N[C@@H](CCCNC(=N)N)C(=O)N[C@@H](CC(N)=O)C(=O)N[C@@H](C)C(N)=O)[C@@H](C)O; UniProt P61925 14-22, looked up, fragment) [reference compound]",effect of inhibitor on the activity of hRFRP-1,[1]; isolated ventricular cardiac myocytes,modifies the activity of hRFRP-1
CC(C)C[C@H](NC(=O)[C@H](Cc1ccccc1)NC(=O)[C@@H](NC(=O)[C@H](Cc1c[nH]cn1)NC(=O)[C@H](CC(=O)O)NC(=O)[C@@H](NC(=O)[C@H](CC(=O)O)NC(=O)[C@@H](N)[C@@H](C)O)C(C)C)C(C)C)C(=O)N[C@@H](CCCNC(=N)N)C(=O)N[C@@H](Cc1ccccc1)C(N)=O [DMS] (H-TDVDHVFLRF-NH2; N-terminus assumed),time effects were sustained,D. melanogaster heart; 10^−6 M and 10^−7 M,3 to 5 min
same,time to return to approximately basal contraction rate,D. melanogaster heart; 10^−6 M and 10^−7 M,≤ 30 min
same,"heart rate, % of the basal contraction rate","D. melanogaster heart; 10^−6 M, pupae",25±11%
same,"heart rate, % of the basal contraction rate","D. melanogaster heart; 10^−7 M, pupae",25±7%
same,time to return to approximately basal contraction rate,D. melanogaster heart; 10^−8 M and 10^−9 M,about 5 minutes
same,"heart rate, % of the basal contraction rate","D. melanogaster heart; 10^−10 M, pupae",77±4%
same,time to maximal effect on heart rate,"D. melanogaster heart; after microinjection, pupae",≤ 1 min
same,pEC50,D. melanogaster heart,8.52
same,responses on heart contractions in larvae and in adults,"D. melanogaster heart; similar range of concentrations, larvae and adults",less robust but significant responses
same,time over which effects were observed,"D. melanogaster heart; typical, 10^−8 M and 10^−9 M",2 to 3 min
same,animals with cardiac arrest,"Protophormia terraenovae; 10 μM, 1 μM, and 0.1 ηM, n=10 at each concentration",100%
same,animals with cardiac arrest,Protophormia terraenovae; lower concentrations,~50%
VDHVFLRFamide (VDHVFLRF-NH2),effect on fly heart rate / contractility (in words),D. melanogaster heart,activity similar to the parent DMS peptide
YMPIISFANLPLRF-NH2 [Y-hRFRP-1],"character relative to hRFRP-1 on myocyte contractile function (agonist, antagonist, reverse agonist; in words)",[1],hRFRP-1 agonist
AFLRFamide (AFLRF-NH2),effect on fly heart rate / contractility (in words),D. melanogaster heart,"capable of not only binding, but exerting an effect on cardiac contractility"
FLRFamide (FLRF-NH2),effect on fly heart rate / contractility (in words),D. melanogaster heart,DMS antagonist
